Data as given in patent publication US7223791B2, “Function regulator for retinoid relative receptor” (Takeda Pharmaceutical Company Limited, priority 2001, dated 2007).

| SMILES | melting point |
| --- | --- |
| CCOC(=O)c1ccc(-c2nc(-c3ccccc3)ccc2Cl)cc1 [Example 1, ethyl 4-(3-chloro-6-phenyl-2-pyridyl)benzoate] | 81 to 82 °C |
| O=C(O)c1ccc(-c2nc(-c3ccccc3)ccc2Cl)cc1 [Example 2, 4-(3-chloro-6-phenyl-2-pyridyl)benzoic acid] | 254 to 255 °C |
| CCOC(=O)c1ccc(-c2ccc(-c3ccc(C(F)(F)F)cc3)n2C)cc1 [Example 3, ethyl 4-[1-methyl-5-(4-trifluoromethylphenyl)-2-pyrrolyl]benzoate] | 150 to 151 °C |
| CCOC(=O)c1cccc(-c2ccc(-c3ccc(C(F)(F)F)cc3)o2)c1 [Example 5, ethyl 3-[5-(4-trifluoromethylphenyl)-2-furyl]benzoate] | 93 to 94 °C |
| O=C(O)c1ccccc1-c1ccc(-c2ccc(C(F)(F)F)cc2)o1 [Example 8, 2-[5-(4-trifluoromethylphenyl)-2-furyl]benzoic acid] | 182 to 183 °C |
| O=C(OCc1ccccc1)c1cc(-c2ccc(-c3ccc(C(F)(F)F)cc3)o2)ccc1OCc1ccccc1 [Example 11, benzyl 2-benzyloxy-5-[5-(4-trifluoromethylphenyl)-2-furyl]benzoate] | 97 to 98 °C |
| O=C(O)c1cc(-c2ccc(-c3ccc(C(F)(F)F)cc3)o2)ccc1O [Example 12, 5-[5-(4-trifluoromethylphenyl)-2-furyl]salicylic acid] | 272 to 273 °C |
| CCOC(=O)c1ccc(-c2ccc(-c3ccc(Cl)cc3)s2)cc1 [Example 13, ethyl 4-[5-(4-chlorophenyl)-2-thienyl]benzoate] | 167 to 168 °C |
| CCOC(=O)c1ccc(-c2ccc(-c3ccc(C(F)(F)F)cc3)s2)cc1 [Example 14, ethyl 4-[5-(4-trifluoromethylphenyl)-2-thienyl]benzoate] | 203 to 204 °C |
| COC(=O)c1ccc(-c2cc(-c3ccccc3)no2)cc1 [Example 17, methyl 4-(3-phenyl-5-isoxazolyl)benzoate] | 205 to 206 °C |
| COC(=O)c1ccc(-c2cc(-c3ccc(Cl)cc3)no2)cc1 [Example 18, methyl 4-[3-(4-chlorophenyl)-5-isoxazolyl]benzoate] | 225 to 226 °C |
| COC(=O)c1cccc(-c2cc(-c3ccccc3)on2)c1 [Example 20, methyl 3-(5-phenyl-3-isoxazolyl)benzoate] | 99 to 100 °C |
| COC(=O)c1ccc(-c2cc(-c3ccccc3)on2)cc1 [Example 21, methyl 4-(5-phenyl-3-isoxazolyl)benzoate] | 201 to 202 °C |
| COC(=O)c1cccc(-c2cc(-c3ccc(Cl)cc3)on2)c1 [Example 22, methyl 3-[5-(4-chlorophenyl)-3-isoxazolyl)benzoate] | 157 to 158 °C |
| COC(=O)c1ccc(-c2cc(-c3ccc(Cl)cc3)on2)cc1 [Example 23, methyl 4-[5-(4-chlorophenyl)-3-isoxazolyl]benzoate] | 225 to 226 °C |
| O=C(O)c1ccc(-c2cc(-c3ccccc3)no2)cc1 [Example 24, 4-(3-phenyl-5-isoxazolyl)benzoic acid] | > 300 °C |
| O=C(O)c1ccc(-c2cc(-c3ccc(Cl)cc3)no2)cc1 [Example 25, 4-[3-(4-chlorophenyl)-5-isoxazolyl]benzoic acid] | > 300 °C |
| COC(=O)c1cccc(-c2cc(-c3ccc(C(F)(F)F)cc3)on2)c1 [Example 31, methyl 3-[5-(4-trifluoromethylphenyl)-3-isoxazolyl]benzoate] | 139 to 140 °C |
| COC(=O)c1ccc(-c2cc(-c3ccc(C(F)(F)F)cc3)on2)cc1 [Example 32, methyl 4-[5-(4-trifluoromethylphenyl)-3-isoxazolyl]benzoate] | 183 to 184 °C |
| COC(=O)c1ccc(-c2n[nH]c(-c3ccccc3)n2)cc1 [Example 36, methyl 4-(5-phenyl-1H-1,2,4-triazol-3-yl)benzoate] | 243 to 244 °C |
| COC(=O)c1ccc(-c2nc(-c3ccccc3)n(C)n2)cc1 [Example 37, methyl 4-(1-methyl-5-phenyl-1H-1,2,4-triazol-3-yl)benzoate] | 167 to 168 °C |
| O=C(O)c1ccc(-c2n[nH]c(-c3ccccc3)n2)cc1 [Example 38, 4-(5-phenyl-1H-1,2,4-triazol-3-yl)benzoic acid] | > 300 °C |
| Cn1nc(-c2ccc(C(=O)O)cc2)nc1-c1ccccc1 [Example 39, 4-(1-methyl-5-phenyl-1H-1,2,4-triazol-3-yl)benzoic acid] | 243 to 244 °C |
| COC(=O)c1ccc(-c2nc(-c3ccc(C(F)(F)F)cc3)no2)cc1 [Example 40, methyl 4-[3-(4-trifluoromethylphenyl)-1,2,4-oxadiazol-5-yl]benzoate] | 177 to 178 °C |

| SMILES | melting point |
| --- | --- |
| COC(=O)c1ccc(-c2nc(-c3ccc(Oc4ccccc4)cc3)no2)cc1 [Example 41, methyl 4-[3-(4-phenoxyphenyl)-1,2,4-oxadiazol-5-yl]benzoate] | 112 to 113 °C |
| O=C(O)c1ccc(-c2nc(-c3ccc(C(F)(F)F)cc3)no2)cc1 [Example 42, 4-[3-(4-trifluoromethylphenyl)-1,2,4-oxadiazol-5-yl]benzoic acid] | 293 to 294 °C |
| O=C(O)c1ccc(-c2nc(-c3ccc(Oc4ccccc4)cc3)no2)cc1 [Example 43, 4-[3-(4-phenoxyphenyl)-1,2,4-oxadiazol-5-yl]benzoic acid] | 278 to 279 °C |
| COC(=O)c1ccc(-c2nnc(-c3ccccc3)o2)cc1 [Example 45, methyl 4-(5-phenyl-1,3,4-oxadiazol-2-yl)benzoate] | 172 to 173 °C |
| COC(=O)c1ccc(-c2nnc(-c3ccc(C(C)(C)C)cc3)o2)cc1 [Example 47, methyl 4-[5-(4-t-butylphenyl)-1,3,4-oxadiazol-2-yl]benzoate] | 210 to 211 °C |
| O=C(O)c1ccc(-c2nnc(-c3ccccc3)o2)cc1 [Example 48, 4-[5-phenyl-1,3,4-oxadiazol-2-yl]benzoic acid] | > 300 °C |
| O=C(O)c1ccc(-c2nnc(-c3ccc(C(F)(F)F)cc3)o2)cc1 [Example 49, 4-[5-(4-trifluoromethylphenyl)-1,3,4-oxadiazol-2-yl]benzoic acid] | > 300 °C |
| CC(C)(C)c1ccc(-c2nnc(-c3ccc(C(=O)O)cc3)o2)cc1 [Example 50, 4-[5-(4-t-butylphenyl)-1,3,4-oxadiazol-2-yl]benzoic acid] | 284 to 286 °C |
| O=C(O)c1cccc(-c2nnc(-c3ccc(C(F)(F)F)cc3)o2)c1 [Example 51, 3-[5-(4-trifluoromethylphenyl)-1,3,4-oxadiazol-2-yl]benzoic acid] | 239 to 240 °C |
| O=C(O)c1ccc(-c2nnc(-c3ccccc3[N+](=O)[O-])o2)cc1 [Example 52, 4-[5-(2-nitrophenyl)-1,3,4-oxadiazol-2-yl]benzoic acid] | 239 to 240 °C |
| CCOC(=O)c1ccc(-c2nnc(-c3ccccc3[N+](=O)[O-])o2)cc1 [Example 53, ethyl 4-[5-(2-nitrophenyl)-1,3,4-oxadiazol-2-yl]benzoate] | 127 to 128 °C |
| CCOC(=O)c1ccc(-c2nnc(-c3ccccc3N)o2)cc1 [Example 54, ethyl 4-[5-(2-aminophenyl)-1,3,4-oxadiazol-2-yl]benzoate] | 174 to 175 °C |
| Nc1ccccc1-c1nnc(-c2ccc(C(=O)O)cc2)o1 [Example 55, 4-[5-(2-aminophenyl)-1,3,4-oxadiazol-2-yl]benzoic acid] | > 300 °C |
| O=C(O)c1ccc(-c2nnc(-c3ccc(C(F)(F)F)cc3)s2)cc1 [Example 59, 4 [5-(4-trifluoromethylphenyl)-1,3,4-thiadiazol-2-yl]benzoic acid] | > 300 °C |
| COC(=O)c1ccc(-c2nc(-c3ccc(Cl)cc3)no2)c([N+](=O)[O-])c1 [Example 60, methyl 4-[3-(4-chlorophenyl)-1,2,4-oxadiazol-5-yl]-3-nitrobenzoate] | 189 to 190 °C |
| O=C(O)c1ccc(-c2nc(-c3ccc(Cl)cc3)no2)c([N+](=O)[O-])c1 [Example 62, 4-[3-(4-chlorophenyl)-1,2,4-oxadiazol-5-yl]-3-nitrobenzoic acid] | 257 to 258 °C |
| O=C(O)c1ccc(-c2nc(-c3ccc(C(F)(F)F)cc3)no2)c([N+](=O)[O-])c1 [Example 63, 3-nitro-4-[3-(4-trifluoromethylphenyl)-1,2,4-oxadiazol-5-yl]benzoic acid] | 233 to 234 °C |
| Nc1cc(C(=O)O)ccc1-c1nc(-c2ccc(Cl)cc2)no1 [Example 64, 3-amino-4-[3-(4-chlorophenyl)-1,2,4-oxadiazol-5-yl]benzoic acid] | 294 to 296 °C (dec.) |
| COC(=O)c1ccc(-c2nc(-c3ccc(C(F)(F)F)cc3)no2)c(NC(=O)C(F)(F)F)c1 [Example 65, methyl 3-trifluoroacetylamino-4-[3-(4-trifluoromethylphenyl)-1,2,4-oxadiazol-5-yl]benzoate] | 188 to 189 °C |
| Nc1cc(C(=O)O)ccc1-c1nc(-c2ccc(C(F)(F)F)cc2)no1 [Example 66, 3-amino-4-[3-(4-trifluoromethylphenyl)-1,2,4-oxadiazol-5-yl]benzoic acid] | > 300 °C |
| COC(=O)c1ccc(-c2nnc(-c3ccc(C(F)(F)F)cc3)o2)c([N+](=O)[O-])c1 [Example 67, methyl 3-nitro-4-[5-(4-trifluoromethylphenyl)-1,3,4-oxadiazol-2-yl]benzoate] | 173 to 174 °C |
| COC(=O)c1ccc(-c2nnc(-c3ccc(C(C)(C)C)cc3)o2)c([N+](=O)[O-])c1 [Example 68, methyl 4-[5-(4-t-butylphenyl)-1,3,4-oxadiazol-2-yl]-3-nitrobenzoate] | 142 to 143 °C |
| O=C(O)c1ccc(-c2nnc(-c3ccc(C(F)(F)F)cc3)o2)c([N+](=O)[O-])c1 [Example 69, 3-nitro-4-[5-(4-trifluoromethylphenyl)-1,3,4-oxadiazol-2-yl]benzoic acid] | 254 to 255 °C |
| CC(C)(C)c1ccc(-c2nnc(-c3ccc(C(=O)O)cc3[N+](=O)[O-])o2)cc1 [Example 70, 4-[5-(4-t-butylphenyl)-1,3,4-oxadiazol-2-yl]-3-nitrobenzoic acid] | 233 to 235 °C |
